Data: patent US10905761B2, “Use of a lipopeptide or lipoprotein as an adjuvant in therapeutic or prophylactic vaccinations” (HELMHOLTZ-ZENTRUM FUER INFEKTIONSFORSCHUNG GMBH, priority 2002, dated 2021)
“Also recorded” adds a separate entry of the source. No end group written: not given here.

Tests used:
Type in all cases: in vivo
BALB/c (H-2d) mice [1] = assay: Humoral responses after immunization by various routes with MALP-2 as adjuvant (serum β-galactosidase-specific antibody ELISA, Example 2); conditions: day 28
Method: Mice were immunized by subcutaneous (s.c.), intraperitoneal (i.p.), intradermal (i.d.) and intranasal (i.n.) routes with either pure β-galactosidase (40 μg) or β-galactosidase mixed with MALP-2 (0.5 μg) on days 0, 7 and 14. On day 28 after the primary immunization, serum samples were removed and the titer of β-galactosidase-specific antibodies was determined by means of an ELISA. The results are shown as reciprocal log2 of the geometric mean of the endpoint titer. As a control, we included a group in which the animals were immunized by the route with β-galactosidase using aluminum hydroxide as adjuvant.
Mice were immunized by the intraperitoneal (i.p.) and intranasal (i.n.) route with either pure β-galactosidase (40 μg/dose) or β-galactosidase mixed with MALP-2 (1 μg/dose) on days 0, 7 and 14. On day 28 after the primary immunization, serum samples were taken and the titer of β-galactosidase-specific antibodies was determined by means of an ELISA. The results are shown as absorbances (OD […]).
Six- to eight-week old female BALB/c (H-2d) mice were purchased from Harlan Winkelmann GmbH (Borchen, Germany) and treated in accordance with local and EU directives. Groups each of 5 mice were immunized on day 1, 7 and 14 either with 40 μg of pure β-galactosidase (Boehringer, Mannheim, Germany), or with admixture of 1 or 0.5 μg of synthetic MALP-2. For the intranasal administration (i.n.), 10 μl was administered into each nostril, whereas for i.p., s.c. and i.d. injection β-galactosidase was resuspended with or without MALP-2 in respectively 400, 100 and 100 μl of PBS. 28 days after the first immunization, serum samples were taken and stored at −20° C. until the β-gal-specific antibodies were determined. Nunc-Immuno MaxiSorp assay plates with 96 wells (Nunc, Roskilde, Denmark) were coated with 100 μl of β-galactosidase (Boehringer, Mannheim, Germany) with 5 μg/ml in 0.05 M carbonate buffer (pH 8.2) per well. Serum dilutions with 1% BSA and 0.05% Tween-20 in PBS were added ([…]), and the plates were incubated at 37° C. for 24 hours. […]

BALB/c (H-2d) mice [2] = assay: β-Galactosidase-specific T-cell proliferation of spleen and regional lymph node cells of immunized mice (Example 7)
Method: The cells were restimulated in vitro with various concentrations of soluble β-galactosidase for four days. The results are shown as average cpm subtracted from the background values for unstimulated cells from groups of three. The SEM is depicted by vertical lines.
Lymph nodes located below the lower jaw and the spleens were removed and put together for the analysis of the cellular immune responses. The cells were grown in RPMI 1640 supplemented by 10% fetal calf serum, 10 U/ml penicillin, 50 μg/ml streptomycin, 5×10^−5 M 2-mercaptoethanol and 1 mM L-glutamine (GIBCO BRL, Karlsruhe, Germany) and stored at 37° C. in a moist atmosphere with 5% CO2. The suspensions of lymph node and spleen cells were adjusted to 5×10^6 cells/ml in complete medium and put in a flat-bottomed 96-well microtiter plate (Nunc) with 100 μl/well, and the plates were incubated in the presence of various concentrations of soluble β-galactosidase for 4 days. Each concentration was tested in groups of three. During the last 18 hours of the incubation, 1 ρCi of [^3H]thymidine (Amersham International, Freiburg, Germany) was added to each well. The cells were then harvested on filter paper (Filtermat A; Wallac, Freiburg, Germany) using a cell harvester (Inotech, Wohlen, Switzerland), and the amount of incorporated [^3H]thymidine in the DNA of the proliferated cells was determined with the aid of a […] (Wallac 1450, Micro-Trilux). The results have been shown as the arithmetic mean of the uptake of [^3H]thymidine in cpm.

BALB/c (H-2d) mice [3] = assay: Serum IgE level after immunization (capture ELISA, Example 6); conditions: MALP-2 i.p. or via the mucous membranes; day 28
Method: Mice were immunized intraperitoneally (i.p.) and intranasally (i.n.) either with pure β-galactosidase (40 μg), exclusively MALP-2 or β-galactosidase mixed with MALP-2 (0.5 μg) on days 0, 7 and 14. On day 28 after the first immunization, serum samples were obtained, and the IgE levels were determined by means of a capture ELISA. The results are shown as IgE concentrations (ng/ml).
To determine the total IgE concentration in the serum of immunized and control animals, serial dilutions of the appropriate samples were incubated in microtiter plates which had previously been coated with anti-mouse IgE (100 μl/well) as capture antibody. After blocking with PBS with 1% BSA and 0.05% Tween-20 at room temperature for two hours, a 1:100 dilution of the serum in PBS-Tween was added (100 μl/well) and the plates were incubated at 37° C. for one hour. After rinsing, biotinylated anti-mouse IgE was added and the plates were incubated at 37° C. for a further hour. After rinsing four times, 100 μl of peroxidase-conjugated streptavidin (Pharmingen) were put in the wells, and the plates were incubated at 37° C. for 30 minutes. After rinsing four times, the reactions were developed by means of ABTS in 0.1 M citrate-phosphate buffer (pH 4.35) and a content of 0.01% H2O2. Serial dilutions of purified mouse IgE were used to produce a standard plot.

“S-[2,3-bispalmitoyloxypropyl]cysteinyl-GNNDESNISFKEK ({S‑(2,3-bispalmitoyloxypropyl)Cys}-GNNDESNISFKEK) [MALP-2]” was tested, and the “antibody responses compared with aluminum hydroxide as standard adjuvant for s.c. injection” value (BALB/c (H-2d) mice [1]; 0.5 μg MALP-2, s.c., i.p., i.d., i.n.) was “at least as strong as (i.d.) or stronger”, the “adjuvant effect on β-galactosidase-specific serum antibodies” value (BALB/c (H-2d) mice [1]; 0.5 μg MALP-2 mixed with 40 μg β-galactosidase, s.c., i.p., i.d., i.n.) was “significant increase; also recorded: strong adjuvant effect” and the “adjuvant effect on β-galactosidase-specific serum antibodies at higher dose” value (BALB/c (H-2d) mice [1]; 1 μg MALP-2, i.p. and i.n.) was “abolition of the adjuvant effect”. For the same substance, the “T-cell proliferation / cellular response compared with CTB as adjuvant” value (BALB/c (H-2d) mice [2]; 0.5 μg MALP-2 versus 10 μg CTB, i.n., p<0.05) was “statistically significant (p<0.05) increase in T-cell proliferation; also recorded: distinctly higher proliferation”, the “proliferation of lymph node and spleen cells after in vitro restimulation with β-galactosidase” value (BALB/c (H-2d) mice [2]; i.n. immunization, day 31) was “efficient proliferation response” and the “proliferation of spleen cells after in vitro restimulation with β-galactosidase” value (BALB/c (H-2d) mice [2]; i.p. immunization, day 31) was “further increase in proliferation”. The “serum IgE content” value (BALB/c (H-2d) mice [3]) was “does not lead to an increase”.
